How the values were obtained:
[1] = Blood glucose and serum triglycerides after chronic administration in alloxan diabetic rats; format: in vivo, alloxan induced diabetic rats; conditions: 20 mg/kg 2× daily for 4 weeks
Source text: The use of DCI and its derivative for the treatment of a variety of metabolic disorders, more specifically those that are related to insulin resistance have been the subject matter of patents and publications. The treatment of insulin resistance in humans by the administration of DCI was the subject matter of U.S. Pat. No. 5,124,360. Since DCI is found in the food chain it has a safety profile that warrants its use as a nutritional supplement. A method of treating a cluster of diseases with elevated blood sugar by the administration of a dietary supplement of DCI was the subject of U.S. Pat. No. 5,428,066.
Male Wistar rats, weighing between 230-250 g, fed regular chow, with free access to water were separated in four groups (n=10/each). The first two groups, termed normoglycemic, were treated with saline (0.1 mL/100 g/12 h) by the oral route (intragastric gavage) or untreated for four weeks. The second two groups, hyperglycemic, were treated with saline (0.1 mL/100 g/12 h) or treated with D-chiro-inositol (20 mg/kg/12 h) under the same protocol. […] Diabetes was induced by a single intravenous injection of 45 mg/kg alloxan as described by Sannomiya et al., 1997 ( ). Diabetes was diagnosed 96 h after injection by blood glucose assay >200 mg/dL. […]

[2] = human PCOS; cited from earlier work
[3] = tested on: aortic rings; assay: Acute incubation of diabetic rabbit aortic rings: acetylcholine relaxation; set-up: species or system alloxan-diabetic rabbits; conditions: acute incubation 1 μM, medium and higher concentrations of acetyl choline, FIG. 7
Procedure: Male California rabbits, weighing 2-2.5 kg, were provided by the vivarium of the Biomedicine Institute-UFC. Diabetes was induced by intraperitoneal injection of alloxan (150 mg/kg) and only animals with plasma glucose concentration above 200 mg/dl were included in the study. Age-matched euglycemic rabbits were used as controls.
Kidneys and aortic rings are harvested from diabetic rabbits after 3 weeks of alloxan injection. They are perfused with KHS containing 1 μM D-chiro-inositol, pinitol, dibutyryl D-chiro-inositol, myo-inositol or saline for 1 hour. Dose response curves for acetylcholine are then performed following prior phenylephrine vasoconstriction as described. At least 6 separate experiments will be performed each in duplicate.
Kidneys and aortic rings were harvested from diabetic rabbits after 3 weeks of alloxan injection. The animals were sacrificed under sodium pentobarbital anesthesia (Hypnol®, 150-200 mg/kg). […]. Rabbit kidneys were obtained from male New Zealand rabbits (1-1.5 kg) after cannulation of the renal artery in situ. […] The alterations in perfusion pressure are continuously recorded in a four-channel polygraph (Narco Biosystems, Houston, Tex., USA) by means of a pressure transducer (P23 Gould Stratham, Oxnard, Calif., USA). […]

[4] = tested on: diabetic RbCC; assay: Relaxant response of diabetic RbCC to NO and Ach after in vitro inositol addition; conditions: in vitro inositol addition (one hour)
Procedure: NO action was investigated in aortic rings and RbCC. […] The data in FIGS. 14 are expressed as mean±SEM of 5 experimental units. * p<0.05, ANOVA followed by Tukey-Kramer, diab (C) vs. Inositol treated. # p<0.05, ANOVA followed by Tukey-Kramer, Eugly vs. Inositol treated. In FIG. 14, Veh=vehicle; C=diabetic control; Diab=diabetic control; Eugly=euglycemic tissue. Relaxation was restored toward or to normal by incubation with inositols.

Row | SMILES | blood glucose [1] | serum triglycerides [1] | ovulation, glucose tolerance and metabolic balance in PCOS [2] | restoring vasorelaxant effect in aortic rings [3] | restoring vasorelaxant effect in aortic rings ([3]; listed as dibutyryl D-chiro-inositol) | relaxant response to graded concentrations of NO and to Ach [4]
1 | OC1C(O)C(O)C(O)C(O)C1O [DCI, D-chiro-inositol] | decreased | decreased | effective in human PCOS in restoring ovulation, glucose tolerance and metabolic balance |  |  | 
2 | CCCC(=O)O[C@@H]1[C@@H](O)[C@@H](O)[C@H](O)[C@H](O)[C@H]1OC(=O)CCC [dbDCI, 3,4-dibutyryl-D-chiroinositol] |  |  |  | more effective than myoinositol | clearly more effective than myo-inositol | more effective than the other three inositols

Reference: US20060258754A1, “Method of treating endothelial dysfunction, oxidative stress and related diseases” (priority 2004, published 2006)
